Data: patent US7282491B2, “Prokaryotic proteasomal proteases of Mycobacterium tuberculosis (MTB) as targets for antibiotic therapy” (Cornell Research Foundation, Inc., priority 2002, dated 2007)

Assays:
[1] = test system: wt Mtb; format: cell-based, Mycobacterium tuberculosis
[2] = test system: wt Mtb; format: cell-based, Mycobacterium tuberculosis; settings: for augmentation of anti-mycobacterial activity of nitrite, inhibitor added along with nitrite at day 0: pH 6.5
[3] = target: mycobacterial proteasome (Mycobacterium tuberculosis, UniProt P9WHT9); settings: tetrapeptide substrate, 0.05% SDS; FIG. 11A
Sequence of mycobacterial proteasome (P9WHT9 58-291): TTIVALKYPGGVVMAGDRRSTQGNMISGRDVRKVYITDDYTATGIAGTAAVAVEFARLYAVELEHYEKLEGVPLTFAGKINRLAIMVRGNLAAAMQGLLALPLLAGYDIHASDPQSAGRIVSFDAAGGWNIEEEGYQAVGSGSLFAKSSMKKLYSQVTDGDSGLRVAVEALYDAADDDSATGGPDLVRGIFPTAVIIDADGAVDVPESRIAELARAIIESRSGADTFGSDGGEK
Sequence of mycobacterial proteasome (P9WHU1 whole entry partner): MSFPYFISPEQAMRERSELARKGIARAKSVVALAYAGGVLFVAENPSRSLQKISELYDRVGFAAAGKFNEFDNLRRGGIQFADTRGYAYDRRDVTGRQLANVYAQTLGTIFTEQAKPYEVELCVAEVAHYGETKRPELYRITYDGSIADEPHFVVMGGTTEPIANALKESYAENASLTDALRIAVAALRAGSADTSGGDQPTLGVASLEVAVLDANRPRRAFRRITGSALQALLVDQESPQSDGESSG
Experimental: To measure proteasomal protease activity, Mtb was lysed by agitation with zirconia silica beads. The soluble fraction was filtered through a 0.45 micron filter. Aliquots of the filtrate (120 g protein) were incubated with succinyl-leu-leu-val-tyr-alpha-methylcoumarin (SEQ ID NO: 1) in the presence of 0.05% SDS and fluorescence was monitored. […] The 50% inhibitory concentration was determined by applying the Hill equation to data from 2 experiments, each in triplicate.

[4] = test system: wt Mtb
[5] = test system: tubercle bacilli; settings: cited from earlier work

| Compound | growth of Mtb under standard culture conditions [1] | augmentation of anti-mycobacterial activity of nitrite, inhibitor added only at the subculture [2] | augmentation of nitrite-mediated injury of wt Mtb [2] | augmentation of the mycobacteriacidal effect of nitrite, inhibitors and nitrite removed simultaneously [2] | augmentation of anti-mycobacterial activity of nitrite, inhibitor added along with nitrite at day 0 [2] | inhibition of proteasomal protease activity in Mtb lysates [3] | outgrowth of Mtb in culture after nitrite [4] | potency of killing tubercle bacilli in vitro [5] |
| --- | --- | --- | --- | --- | --- | --- | --- | --- |
| CC(C)C[C@H](NC(=O)[C@H](Cc1cccc2ccccc12)NC(=O)N1CCOCC1)B(O)O [MLN-273, N-[4-morpholine]carbonyl-β-[1-naphthyl]-L-alanine-L-leucine boronic acid] | suppressed the growth of Mtb | just as effective | augmented nitrite-mediated injury | did not | increased the anti-mycobacterial activity of nitrite | potently blocked proteasomal protease activity | enhanced the ability of nitrite to suppress outgrowth of Mtb | – |
| CC[C@H](C)[C@H](NC(=O)[C@H]([C@@H](C)CC)N(C)C(C)=O)C(=O)N[C@H](C(=O)N[C@@H](CC(C)C)C(=O)[C@@]1(C)CO1)[C@@H](C)O [epoxomicin] | – | just as effective | – | augmented the mycobacteriacidal effect of nitrite | increased the anti-mycobacterial activity of nitrite | – | – | – |
| [N]=O [nitric oxide] | – | – | – | – | – | – | – | ~150 nM |
